Series [1] deals with COX-2 (Mus musculus (Mouse), UniProt Q05769). Put plainly: COX-2 expression in brain regions of LPS-treated mice, immunoblotting. Type of series: in vivo. The settings on record: for COX-2 expression reduction (%): mofezolac 6 mg/kg i.p. As to the method: Substantia nigra pars compacta (SNpc), Hippocampus, Frontal lobe and Caudate from mice brains were minced in ice-cold PBS, washed and then homogenized in a buffer containing lysis buffer (50 mM Tris pH 8, 0.02 g/mL NaCl, 0.2% SDS, 1% Triton-X, 4 U/ml aprotinin, 2 mM leupeptin, 100 mM phenylmethanesulfonyl fluoride).
The tissue and cell culture lysates were vortexed for 15-20 s and, then, centrifuged at 12,800×g for 20 min. The protein concentration in the supernatant was spectrophotometrically determined by Bradford's protein assay (Bradford, 1976). Protein samples were diluted with sample buffer (0.5 M Tris-HCl pH=6.8, 10% glycerol, 10% (w/v) SDS, 5% 2-mercaptoethanol, 0.05% (w/v) bromophenol blue) and then boiled for 3 min. Proteins (25 μg/lane) and prestained standards (BioRad Laboratories, Hercules, CA, USA) were loaded on 7% or 12% SDS precast polyacrylamide gels (BioRad Laboratories).
After electrophoresis, the resolved proteins were transferred from the gel to nitrocellulose membranes. A blotting buffer [20 mMTris/150 mM glycine, pH=8.0, 20% (v/v) methanol] was used for gel and membrane saturation and blotting. Then, membranes were incubated in the dark with 1 μg/mL mouse monoclonal antibody (MoAb) anti-COX-1 and rabbit polyclonal Ab anti-COX-2 (1:1000) (both from AbCam, Cambridge, UK), rabbit polyclonal Ab anti p-IkB-α (1:200), mouse polyclonal Ab anti β-actin (1:500) (all from Santa Cruz Biotechnology), mouse MoAb anti-glial fibrillary acidic protein (GFAP) (1:200) and mouse mAb anti-ionized calcium-binding adapter molecule-1 (Iba-1) (1:200) (both from Merck Millipore) overnight at 4° C. The membranes were washed with 0.1% Tween 20-PBS (for 20 min, 3 times) and then incubated with the secondary antibody diluted 1:2000 for 60 min. Bands were visualized by chemiluminescence detection (Invitrogen, Milan, Italy). The β-actin level was used as a protein loading control. For tissue analysis, obtained bands were normalized to the level of β-actin performed for each cerebral area tested. For cell cultures the bands were normalized to the β-actin level in each experimental condition.
On the seventh day, mice were anesthetized with tribromoethanol (250 mg/Kg, i.p.) and positioned in a stereotactic apparatus (Kopf Instruments, Tujunga, CA, USA). […] Sterotaxic injections coordinates were: 2.3 mm dorsal/ventral, 1.0 mm lateral, and 0.5 mm anterior/posterior from the bregma.

The test system of series [2] is BV2 microglial cells. Put plainly: BV2 microglial cell viability, MTT reduction assay. It counts as cell-based. The conditions noted are these: 24 h, P6 0.5 and 1 μM, mofezolac 0.1 and 0.5 μM, alone or with LPS. The procedure:
Cells were then incubated for different times at 37° C. with LPS, as pro-inflammatory stimulus. Experiments included cells grown in medium alone (control).
Cell viability of microglial cells was quantified using the MTT reduction assay. The cells (8×10^3/well) were grown in 96-well plates (Becton Dickinson Labware) in complete medium and treated with different concentration of COX inhibitors, in presence or absence of LPS. Untreated cells were used as a control. A PBS 1× solution of MTT (5 mg/mL) was prepared and added to the cell medium at a final concentration of 0.5 mg/mL. Cells were incubated for 4 h at 37° C. and 5% CO2 to allow the MTT metabolism. The formazan crystals formed (from MTT) into the cells were solubilized with DMSO (Sigma-Aldrich). The levels of MTT formazan were determined measuring the optical density at λ=560 nm and subtracting the background (λ=670 nm) with a Victor Multiplate Reader (Wallac). Optical density was directly correlated to cell quantity.
On the technique in general: Formazan colour is commonly taken as a measure of viable cells.

The values below come from patent publication US12011433B2 (UNIVERSITÁ DEGLI STUDI DI BARI “ALDO MORO”, priority 2016, dated 2024).

The structures appear in SMILES notation.

On to `COc1ccc(-c2noc(CC(=O)O)c2-c2ccc(OC)cc2)cc1` [mofezolac, 2-(3,4-bis(4-methoxyphenyl)isoxazol-5-yl)acetic acid], for which the “COX-2 expression reduction (%)” value in series [1] (Caudate), in series [1] (Frontal lobe), in series [1] (Hippocampus) and in series [1] (Substantia nigra) was 0% each time. Also, the “effect on COX-2 modulation” value in series [1] (all tested brain regions) was “no effect”. For the same molecule, in series [2], the cell toxicity entry is “No cell toxicity”.
